Read-outs that look alike come from different tables or passages of the source.
Experiments:
SKBR3 = test: Breast tumor cell growth inhibitory activity; format: cell-based; conditions: Homo sapiens, SK-BR-3; Table 1, breast
MCF-7 = test: Breast tumor cell growth inhibitory activity; format: cell-based; conditions: Homo sapiens, MCF7; Table 1, breast
COX-2 = target: T1, COX-2 (Homo sapiens, UniProt P35354); test: COX inhibition, colorimetric assay with recombinant COX enzymes
T1 sequence (P35354 18-604): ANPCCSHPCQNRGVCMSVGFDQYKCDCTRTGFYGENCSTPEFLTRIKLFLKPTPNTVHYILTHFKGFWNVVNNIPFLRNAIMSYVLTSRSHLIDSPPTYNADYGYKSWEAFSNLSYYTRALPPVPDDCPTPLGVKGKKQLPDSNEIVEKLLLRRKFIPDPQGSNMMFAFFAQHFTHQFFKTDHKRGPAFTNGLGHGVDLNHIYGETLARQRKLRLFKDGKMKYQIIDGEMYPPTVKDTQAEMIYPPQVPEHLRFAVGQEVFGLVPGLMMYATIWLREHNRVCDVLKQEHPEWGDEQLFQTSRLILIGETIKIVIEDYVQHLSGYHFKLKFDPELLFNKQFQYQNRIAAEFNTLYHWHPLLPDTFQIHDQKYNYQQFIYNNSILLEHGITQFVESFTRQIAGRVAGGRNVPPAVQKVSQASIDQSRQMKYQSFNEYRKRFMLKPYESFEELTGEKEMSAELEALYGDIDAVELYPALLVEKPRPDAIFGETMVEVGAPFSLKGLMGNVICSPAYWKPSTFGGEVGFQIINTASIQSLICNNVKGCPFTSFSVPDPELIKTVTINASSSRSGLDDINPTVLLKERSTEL
Experimental: (§2) The enzyme activity was measured using a colorimetric assay using recombinant COX enzymes. […] The growth inhibitory activity was determined following 72 hours of treatment using a standard cell viability assay (Cell Titer Glo, Promega Corp).

SW480 = test: Tumor cell growth inhibition, cell viability assay (Cell Titer Glo), 72 h; format: cell-based; conditions: Homo sapiens
Experimental: (§1) The potency to inhibit tumor cell growth was determined by calculating IC50 values using a standard cell viability assay (Cell Titer Glo, Promega Corp,) following 72 hours of treatment. The human colon tumor cell lines, HT-29, SW480, HCT116, and Colo 741 were derived from colon adenocarcinomas, while LT97 is derived from an adenoma. Fetal human colonocytes (FHC) are representative of normal colonocytes. The lack of effect inhibiting cyclooxygenases 1 and 2 (COX-1 and -2) is also shown.

HCT116 = test: as above; format: cell-based; conditions: Homo sapiens, HCT-116
Experimental: as §1

Colo741 = test: as above; format: cell-based; conditions: Homo sapiens, COLO-741; Table 3; colon adenocarcinoma; 72 hours of treatment
Experimental: as §1

LT97 = test: as above; format: cell-based; conditions: Homo sapiens; Table 3; adenoma; 72 hours of treatment
Experimental: as §1

HT29 = test: as above; format: cell-based; conditions: Homo sapiens, HT-29
Experimental: as §1

MDA-MB-231 = test: as above; conditions: Homo sapiens
Experimental: as §2

[1] = tested on: Fetal human colonocytes (FHC); test: Cell growth inhibition, cell viability assay (Cell Titer Glo), 72 h; format: cell-based; conditions: Table 3, normal colonocytes, 72 hours of treatment
Experimental: as §1

COX-1 = COX-1 (Homo sapiens, UniProt P23219); test: COX inhibition, colorimetric assay with recombinant COX enzymes
COX-1, sequence (P23219 24-599): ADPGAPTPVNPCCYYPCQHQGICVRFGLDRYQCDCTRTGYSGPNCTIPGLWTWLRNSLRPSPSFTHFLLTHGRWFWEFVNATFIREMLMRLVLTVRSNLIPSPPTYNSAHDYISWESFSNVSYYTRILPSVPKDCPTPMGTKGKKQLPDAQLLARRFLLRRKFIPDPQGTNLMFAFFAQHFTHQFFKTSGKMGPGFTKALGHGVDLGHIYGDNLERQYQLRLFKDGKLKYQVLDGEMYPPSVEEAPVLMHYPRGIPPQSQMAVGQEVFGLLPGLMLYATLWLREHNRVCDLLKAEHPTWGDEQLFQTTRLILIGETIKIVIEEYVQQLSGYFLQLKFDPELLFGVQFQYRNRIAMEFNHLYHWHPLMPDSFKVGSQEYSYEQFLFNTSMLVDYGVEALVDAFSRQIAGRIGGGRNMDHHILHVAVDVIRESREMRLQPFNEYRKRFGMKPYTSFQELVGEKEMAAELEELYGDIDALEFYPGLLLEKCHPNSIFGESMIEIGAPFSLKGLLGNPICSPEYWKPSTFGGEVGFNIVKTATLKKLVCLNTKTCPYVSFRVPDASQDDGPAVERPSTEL
Experimental: as §2

PC3 = test: Tumor cell growth inhibitory activity; format: cell-based; conditions: Homo sapiens, PC-3
[2] = Table 1, colon, read-out: Colon tumor cell growth inhibitory activity (IC50, μM) SW480
[3] = Table 3, colon adenocarcinoma, 72 hours of treatment, read-out: SW480 (IC50)
[4] = Table 1, colon, read-out: Colon tumor cell growth inhibitory activity (IC50, μM) HCT116
[5] = Table 3, colon adenocarcinoma, 72 hours of treatment, read-out: HCT116 (IC50)
[6] = Table 1, colon, read-out: Colon tumor cell growth inhibitory activity (IC50, μM) HT29
[7] = Table 3, colon adenocarcinoma, 72 hours of treatment, read-out: HT29 (IC50)
[8] = MDA-MB-231, read-out: Breast tumor cell growth inhibitory activity (IC50, μM) MDA-MB-231
[9] = Table 1, compounds 10-13, read-out: Tumor cell growth inhibitory activity (IC50, μM) PC3
[10] = scheme table, read-out: IC50 (μM) PC3
[11] = Table 1, compounds 10-13, read-out: Tumor cell growth inhibitory activity (IC50, μM) HT29
[12] = scheme table, read-out: IC50 (μM) HT29
[13] = MDA-MB-231, read-out: IC50 (μM) MDA-MB-231
[14] = MDA-MB-231, read-out: Tumor cell growth inhibitory activity (IC50, μM) MDA-MB-231 (breast)

CSc1ccc(/C=C2/C(C)=C(CCNCc3ccccc3)c3cc(F)ccc32)cc1 [Compound 1]
IC50 (SKBR3): 3.4 µM
IC50 (MCF-7): 6.8 µM
IC50 (COX-2): > 200 µM
IC50 (SW480; [2]): 3.3 µM
IC50 (SW480; [3]): 3.28 µM
IC50 (HCT116; [4]): 4.9 µM
IC50 (HCT116; [5]): 4.93 µM
IC50 (Colo741): 8.85 µM
IC50 (LT97): 6.82 µM
IC50 (HT29; [6]): 2.7 µM
IC50 (HT29; [7]): 2.67 µM
IC50 (MDA-MB-231; [8]): 5.8 µM
IC50 [1]: 7.83 µM
IC50 (COX-1): > 200 µM

CSc1ccc(/C=C2/C(C)=C(CCNCCN3CCCCC3)c3cc(F)ccc32)cc1 [Compound 3]
IC50 (SKBR3): 4.8 µM
IC50 (MCF-7): 6.4 µM
IC50 (SW480; [2]): 5.4 µM
IC50 (HCT116; [4]): 3.8 µM
IC50 (HT29; [6]): 3 µM
IC50 (MDA-MB-231; [8]): 5.3 µM

CSc1ccc(/C=C2/C(C)=C(CCN)c3cc(F)ccc32)cc1 [Compound 4]
IC50 (SKBR3): 3.9 µM
IC50 (MCF-7): 5.9 µM
IC50 (SW480; [2]): 4.1 µM
IC50 (HCT116; [4]): 4.9 µM
IC50 (HT29; [6]): 4.1 µM
IC50 (MDA-MB-231; [8]): 5.5 µM

CC1=C(CCNCc2ccco2)c2cc(F)ccc2/C1=C\c1ccc([S+](C)[O-])cc1 (centres unmarked) [Compound 7]
IC50 (HT29; [6]): 2.3 µM
IC50 (MDA-MB-231; [8]): 3.7 µM

CC1=C(CCNCc2ccccc2)c2cc(F)ccc2/C1=C\c1ccc(S(C)(=O)=O)cc1 [Compound 9]
IC50 (COX-2): > 100 µM
IC50 (SW480; [3]): 5.36 µM
IC50 (HCT116; [5]): 6.44 µM
IC50 (Colo741): 5.87 µM
IC50 (LT97): 8.85 µM
IC50 (HT29; [6]): 1.8 µM
IC50 (HT29; [7]): 2.02 µM
IC50 [1]: 11.2 µM
IC50 (COX-1): > 100 µM

CSc1ccc(/C=C2/C(C)=C(CN)c3cc(F)ccc32)cc1 [Compound 10, (Z)-(5-Fluoro-2-methyl-1-(4-(methylthio)benzylidene)-1H-inden-3-yl)methanamine]
IC50 (PC3; [9]): 33.6 µM
IC50 (PC3; [10]): 33.6 µM
IC50 (HT29; [11]): 16 µM
IC50 (HT29; [12]): 16 µM
IC50 (MDA-MB-231; [13]): 19.3 µM
IC50 (MDA-MB-231; [14]): 19.3 µM

COc1cc(/C=C2/C(C)=C(CN)c3cc(F)ccc32)cc(OC)c1OC [Compound 11, (Z)-(5-Fluoro-2-methyl-1-(3,4,5-trimethoxybenzylidene)-1H-inden-3-yl)methanamine]
IC50 (PC3; [9]): 29.7 µM
IC50 (PC3; [10]): 29.7 µM
IC50 (HT29; [11]): 14.6 µM
IC50 (HT29; [12]): 14.6 µM
IC50 (MDA-MB-231; [13]): 15.3 µM
IC50 (MDA-MB-231; [14]): 15.3 µM

CSc1ccc(/C=C2/C(C)=C(CN(Cc3ccncc3)Cc3ccncc3)c3cc(F)ccc32)cc1 [Compound 12, (Z)-1-(5-Fluoro-2-methyl-1-(4-(methylthio)benzylidene)-1H-inden-3-yl)-N,N-bis(pyridin-4-ylmethyl)methanamine]
IC50 (PC3; [9]): 12.7 µM
IC50 (PC3; [10]): 12.7 µM
IC50 (HT29; [11]): 10.8 µM
IC50 (HT29; [12]): 10.8 µM
IC50 (MDA-MB-231; [13]): 9.5 µM
IC50 (MDA-MB-231; [14]): 9.5 µM

COc1cc(/C=C2/C(C)=C(CN(Cc3ccncc3)Cc3ccncc3)c3cc(F)ccc32)cc(OC)c1OC [Compound 13, (Z)-1-(5-Fluoro-2-methyl-1-(3,4,5-trimethoxybenzylidene)-1H-inden-3-yl)-N,N-bis(pyridin-4-ylmethyl)methanamine]
IC50 (PC3; [9]): 9.09 µM
IC50 (PC3; [10]): 9.09 µM
melting point: 66.4 °C
IC50 (HT29; [11]): 9.83 µM
IC50 (HT29; [12]): 9.83 µM
IC50 (MDA-MB-231; [13]): 8.21 µM
IC50 (MDA-MB-231; [14]): 8.21 µM

CSc1ccc(/C=C2/C(C)=C(CC(=O)O)c3cc(F)ccc32)cc1 [Sulindac sulfide, reference compound]
IC50 (SW480; [3]): 85.2 µM
IC50 (HCT116; [5]): 73.3 µM
IC50 (Colo741): 150 µM
IC50 (LT97): 37.8 µM
IC50 (HT29; [7]): 73.6 µM
IC50 [1]: > 200 µM

Reference: patent US9365528B2 (Southern Research Institute, priority 2011, dated 2016)
